Experimental data published in patent publication US5739145A (priority 1993, dated 1998).
Where a name gives a salt, the structure may show the parent alone.

Key:
[1] = test system: rats (capsaicin-induced cough); test: animal or person; assay type: in vivo; details: Rattus norvegicus, ip, 0.5 h
mouse vas deferens = test: Opioid activity test using extracted mouse vas deferens sample (inhibition of electrically stimulated contraction); assay type: cell-based, mouse (male ddy)
Description: (§1) Male ddy mice were provided for experimentation. Vas deferens extracted from the mice were suspended in a Magnus tube filled with a 37° C.-heated Krebes-Henseleit solution ([…], 4.7 mM KCl, 2.5 mM CaCl2, 1.1 mM KH2 PO4, 25 mM NaHCO3, 11 mM glucose) and aerated with 5% carbon dioxide and 95% oxygen. A 0.1 Hz, 5.0 mS electrical stimulus was applied via an annular platinum electrode. The tissue contraction was recorded on a polygraph using an isometric transducer.
(§2) Then, the sample was adequately washed with a nutrient solution, and when the contraction reaction stabilized, the μ-antagonist naloxone, the δ-antagonist NTI or the κ-antagonist norBNI was added thereto, and after about 20 minutes the test compound was once again added cumulatively. The Ke value was calculated from the difference in potency between the two, according to the following equation. Ke=[concentration of added antagonist]/(IC50 ratio -1) IC50 ratio=IC50 value in presence of antagonist/IC50 value in absence of antagonist

[2] = test system: guinea pigs (cough by mechanical airway stimulation); test: Antitussive effect by guinea pig airway stimulation method; assay type: in vivo, guinea pig (male Hartley); details: for ED50: Cavia porcellus, sc, guinea pig airway stimulation; for Number of animals exhibiting coughing/number of animals tested: guinea pig, s.c.
Description: A group of five male Hartley guinea pigs (5 weeks old) with a body weight of 330-380 g were used. They were fixed in the supine position under light anesthesia by intraperitoneal administration of 15 mg/kg of pentobarbital sodium, and the necks were cut open to expose the airways. A small hole was opened in each exposed airway, from which stimulating hair was inserted about 3 cm into the airway at a 30° angle to stimulate the wall of the airway, and the occurrence or lack of coughing was noted. […] The test compounds were subcutaneously administered, and the stimulation was performed twice at each point 15, 30, 60 and 120 minutes after administration, pronouncing effective those cases in which no coughing occurred either time.

κ-receptors = target: T1, κ-receptors (Mus musculus, UniProt P33534); test: Antagonism by the κ-antagonist norBNI in extracted mouse vas deferens; assay type: cell-based; details: Ke=[antagonist]/(IC50 ratio -1)
T1 construct: from tissue; host or cells: vas deferens of male ddy mice
Description: as §1, §2

δ opioid receptor = target: T2, δ opioid receptor (Mus musculus, UniProt P32300); test: Antagonism by the δ-antagonist NTI in extracted mouse vas deferens; assay type: cell-based; details: Ke=[antagonist]/(IC50 ratio -1)
T2 construct: from tissue; host or cells: vas deferens of male ddy mice
Description: as §1, §2

μ-receptors = target: T3, μ-receptors (Mus musculus, UniProt P42866); test: Antagonism by the μ-antagonist naloxone in extracted mouse vas deferens; assay type: cell-based; details: Ke=[antagonist]/(IC50 ratio -1)
T3 construct: from tissue; host or cells: vas deferens of male ddy mice
Description: as §1, §2

T2 sequence (P32300 whole entry): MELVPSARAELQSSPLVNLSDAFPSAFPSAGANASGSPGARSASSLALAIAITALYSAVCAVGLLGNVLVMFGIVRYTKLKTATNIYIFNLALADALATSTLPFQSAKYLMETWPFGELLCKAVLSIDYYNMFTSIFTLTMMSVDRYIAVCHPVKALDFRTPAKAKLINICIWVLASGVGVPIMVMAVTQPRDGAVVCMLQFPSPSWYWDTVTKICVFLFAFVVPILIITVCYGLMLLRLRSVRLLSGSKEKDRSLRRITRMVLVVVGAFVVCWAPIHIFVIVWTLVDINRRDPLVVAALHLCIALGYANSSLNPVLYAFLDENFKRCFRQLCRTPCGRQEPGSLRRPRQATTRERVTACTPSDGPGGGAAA
T1 sequence (P33534 whole entry): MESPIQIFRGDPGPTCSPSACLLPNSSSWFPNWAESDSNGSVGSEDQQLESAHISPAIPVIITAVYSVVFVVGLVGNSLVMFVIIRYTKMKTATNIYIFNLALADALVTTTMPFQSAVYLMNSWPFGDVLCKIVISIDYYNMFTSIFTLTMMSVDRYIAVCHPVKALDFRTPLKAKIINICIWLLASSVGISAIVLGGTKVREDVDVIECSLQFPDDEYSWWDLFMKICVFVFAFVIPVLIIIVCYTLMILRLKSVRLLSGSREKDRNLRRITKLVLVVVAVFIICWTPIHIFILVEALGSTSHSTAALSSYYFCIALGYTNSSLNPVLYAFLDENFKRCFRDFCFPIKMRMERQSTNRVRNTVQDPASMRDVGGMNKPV
T3 sequence (P42866 whole entry): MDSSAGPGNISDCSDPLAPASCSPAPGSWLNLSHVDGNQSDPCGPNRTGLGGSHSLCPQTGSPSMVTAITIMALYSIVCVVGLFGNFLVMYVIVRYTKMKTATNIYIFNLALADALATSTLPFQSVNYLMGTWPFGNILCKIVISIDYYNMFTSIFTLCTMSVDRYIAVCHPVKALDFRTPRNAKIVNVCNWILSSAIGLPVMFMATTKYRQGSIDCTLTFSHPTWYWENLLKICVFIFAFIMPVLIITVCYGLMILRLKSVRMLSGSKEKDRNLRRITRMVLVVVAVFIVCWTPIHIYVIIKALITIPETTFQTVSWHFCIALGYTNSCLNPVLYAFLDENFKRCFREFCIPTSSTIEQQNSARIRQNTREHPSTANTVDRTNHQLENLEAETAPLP

SMILES | ED50 [1] [µg/kg] | IC50 (mouse vas deferens) [nM] | ED50 [2] [µg/kg] | Number of animals exhibiting coughing/number of animals tested ([2]; dosage 1 μg/kg) | Number of animals exhibiting coughing/number of animals tested ([2]; dosage 3 μg/kg) | Number of animals exhibiting coughing/number of animals tested ([2]; dosage 30 μg/kg) | Ke norBNI (κ-receptors) [nM] | Ke NTI (δ opioid receptor) [nM] | Ke Naloxone (μ-receptors) [nM]
COc1ccc2c3c1O[C@H]1[C@H](N(C)C(=O)C#Cc4cccc(C)c4)CC[C@@]4(O)[C@@H](C2)N(CC2CC2)CC[C@]314 [Compound 13, 17-cyclopropylmethyl-4,5α-epoxy-3-methoxy-14β-hydroxy-6β-[N-methyl-3-(3-methylphenyl)propiolamido]morphinan.HCl] | 12.1 |  |  |  |  |  |  |  | 
Cc1cccc(C#CC(=O)N(C)[C@@H]2CC[C@@]3(O)[C@H]4Cc5ccc(O)c6c5[C@@]3(CCN4CC3CC3)[C@H]2O6)c1 [Compound 11, 17-cyclopropylmethyl-4,5α-epoxy-3,14β-dihydroxy-6β-[N-methyl-3-(3-methylphenyl)propiolamido]morphinan.HCl] | 13.5 |  |  |  |  |  |  |  | 
CN(CCc1ccc(Cl)c(Cl)c1)[C@@H]1CC[C@@]2(O)[C@H]3Cc4ccc(O)c5c4[C@@]2(CCN3CC2CC2)[C@H]1O5 [Compound 7, 17-cyclopropylmethyl-4,5α-epoxy-3,14β-dihydroxy-6β-[N-methyl-N-2-(3,4-dichlorophenyl)ethylamino]morphinan.1.9 HCl] | 437 |  |  |  |  |  |  |  | 
CN(C(=O)/C=C/c1ccoc1)[C@@H]1CC[C@@]2(O)[C@H]3Cc4ccc(O)c5c4[C@@]2(CCN3CC2CC2)[C@H]1O5 [Compound 5, 17-cyclopropylmethyl-4,5α-epoxy-3,14β-dihydroxy-6β-[N-methyl-trans-3-(3-furyl)acrylamido] morphinan.HCl] | 4.3 | 0.42 | 3.7 | 2/5 | 3/5 | 5/5 | 0.164 |  | 
CN(C(=O)/C=C/c1cccc(OC(F)(F)F)c1)[C@@H]1CC[C@@]2(O)[C@H]3Cc4ccc(O)c5c4[C@@]2(CCN3CC2CC2)[C@H]1O5 [Compound 10, 17-cyclopropylmethyl-4,5α-epoxy-3,14β-dihydroxy-6β-(N-methyl-3-trifluoromethoxycinnamamido)morphinan.tartrate] | 2.1 |  |  |  |  |  | 0.17 | 17.6 | 10.8
CN(C(=O)OCc1ccccc1)[C@@H]1CC[C@@]2(O)[C@H]3Cc4ccc(O)c5c4[C@@]2(CCN3CC2CC2)[C@H]1O5 [Compound 8, 17-cyclopropylmethyl-4,5α-epoxy-3,14β-dihydroxy-6β-(N-methyl-benzyloxycarbamido)morphinan.HCl] | 1.79 | 0.42 |  |  |  |  | 1.00 | 532 | 
O=C(CCc1ccccc1)O[C@H]1CC[C@@]2(O)[C@H]3Cc4ccc(O)c5c4[C@@]2(CCN3CC2CC2)[C@H]1O5 [Compound 9, 17-cyclopropylmethyl-4,5α-epoxy-3,14β-dihydroxy-6α-(3-phenylpropionyloxy)morphinan.tartrate] | 3300 |  |  |  |  |  |  |  | 
Cc1cccc(/C=C/C(=O)N(C)[C@@H]2CC[C@@]3(O)[C@H]4Cc5ccc(O)c6c5[C@@]3(CCN4CC3CC3)[C@H]2O6)c1 [Compound 6, 17-cyclopropylmethyl-4,5α-epoxy-3,14β-dihydroxy-6β-(N-methyl-3-methylcinnamamido)morphinan.HCl] |  | 0.32 | 12.5 | 1/5 | 1/5 | 4/5 | 1.95 | 64.5 | 1780
COc1ccc2c3c1O[C@H]1[C@H](N(C)C(=O)/C=C/c4ccoc4)CC[C@@]4(O)[C@@H](C2)N(CC2CC2)CC[C@]314 [Compound 12, 17-cyclopropylmethyl-4,5α-epoxy-3-methoxy-14β-hydroxy-6β-[N-methyl-trans-3-(3-furyl)acrylamido]morphinan.HCl] | 0.12 |  |  |  |  |  |  |  | 
CN(C(=O)/C=C/c1cccc(C(F)(F)F)c1)[C@@H]1CC[C@@]2(O)[C@H]3Cc4ccc(O)c5c4[C@@]2(CCN3CC2CC2)[C@H]1O5 [Compound 4, 17-cyclopropylmethyl-4,5α-epoxy-3,14β-dihydroxy-6β-(N-methyl-3-trifluoromethylcinnamamido)morphinan.tartrate] | 107 | 0.468 | 2.6 | 1/5 | 3/5 | 5/5 | 3.20 | 291 | 
